Measured values taken from a melting point compilation (Tetko et al.; mined from patent text by program, amines drawn as free bases though some values may be those of a salt).

| melting point [°C] | Structure (SMILES) |
| --- | --- |
| 168 to 169 | N#Cc1c(C(F)(F)F)nn(-c2c(Cl)cc(S(=O)(=O)C(F)(F)F)cc2Cl)c1[N+](=O)[O-] |
| 278 to 280 | CS(=O)(=O)c1ccc(-n2nc(C(F)(F)F)cc2-c2nc3cc(F)ccc3[nH]2)cc1 |
| 254 to 255 | N#Cc1c(-c2ccccc2)[nH]c(Cl)c1Cl |
| 142 to 146 | FC(F)(F)c1ccccc1-c1cccc(C=NNC(=S)NN2CCCC2)n1 |
| 241 to 243 | CCCNC1=NS(=O)(=O)c2cc(C(F)(F)F)ccc2N1 |
| 212 | COCC(=O)Nc1ccc(C2=NNC(=O)CC2C)cc1 (centres undefined) |
| 163 to 165 | Oc1cnccc1CCCOc1cccnc1Oc1ccccc1 |
| 98 to 100 | CCCOCCOc1ccc(-c2ccc3c(c2)C=C(C(=O)O)CCN3CCCOCC)cc1 |
| 224 to 225 | O=c1ccc2c(O)cccc2o1 |
| 174 to 178 | COc1ccc(S(C)(=O)=O)cc1N |
| 75.5 to 78.5 | CC(C)C(CNC(=O)OCc1ccccc1)C(=O)O (centres undefined) |
| 203 | CCCCCC(=O)Nc1nnc(C)s1 |
| 214 to 215 | CC(C)OCCOc1ccc(-c2ccc3c(c2)C=C(C(=O)Nc2ccc(CN(C)C4CCOCC4)cc2)CCS3(=O)=O)cc1 |
| 155 | CCCCOc1ccc(S(=O)(=O)C2(C(=O)NO)CCN(Cc3ccc(OCCN4CCCCC4)cc3)CC2)cc1 |
| 168 to 172 | O=[N+]([O-])c1cc(C(c2ccc(NCc3ccccc3)c([N+](=O)[O-])c2)(C(F)(F)F)C(F)(F)F)ccc1NCc1ccccc1 |
| 164 to 168 | CCOC(=O)C=Cc1ccc2c(c1)c1cc(C=CC(=O)OCC)ccc1n2CC |
| 157 to 159 | CC(=O)N1c2cc(Cl)ccc2Sc2ccc(C(C)N(O)C(N)=O)cc21 (centres undefined) |
| 38 to 42.8 | Cc1cccnc1-c1ccc(Cl)cc1Cl |
| 202 to 204 | COc1cc2c(cc1C(F)(F)F)N(C(=O)Nc1ccc(Oc3cccnc3)nc1)CC2 |
| 282 to 283 | CC(=O)NC1CCn2c1nc1cc(NC(=O)c3cc4cc(F)ccc4n3Cc3cccc(F)c3)cnc12 (centres undefined) |
| 116 to 117 | Cc1cc(-n2cncn2)ccc1[N+](=O)[O-] |
| 215 to 216 | CCc1n[nH]c(-c2ccccc2)c1NC(=O)c1ccccc1 |

| melting point [°C] | Structure (SMILES) |
| --- | --- |
| 194 to 195 | CC(=O)Nc1nc(Cl)c(NC=O)c(N[C@@H]2C=C[C@H](CO)C2)n1 (relative stereo) |
| 112 to 113 | O=C(O)CCCCCCCCNS(=O)(=O)c1cccc(Cl)c1 |
| 220 to 222 | COC(=O)C1(CC(N)=O)C(=O)N(C)C(=O)c2ccc(Cl)cc21 (centres undefined) |
| 248 to 250 | CCCn1c(=O)c2[nH]c(/C=C/c3cc(OC)c(OC)cc3Br)nc2n(CCC)c1=O |
| 205 to 208 | CON=Cc1cc(NC(=O)N2CCOCN2)c(Cl)cc1Cl |
| 106 to 109 | CCOP(=O)(CC(=O)Nc1cc2c(Nc3ccc(OCc4cccc(Cl)c4)c(Cl)c3)ncnc2cn1)OCC |
| 90 to 91 | O=C(Cc1ccncc1)c1ccc(F)cc1 |
| 264 to 265 | CNC(=O)[C@H]1CN(c2cc(F)c3c(c2)CCC(=O)N3C)C(=O)O1 |
| 155 to 156 | Cc1cccc(C)c1N1CC(=N)N(c2c(C)cccc2C)C1C(=O)c1ccc(Cl)cc1 (centres undefined) |
| 278 to 279 | CCNC(=O)N1C[C@@H](c2c[nH]c3ccccc23)[C@H](c2cn3c4c(cccc24)CCC3)C1 |
| 163 to 164 | O=C(Nc1ccc2nc(CN3CCCCC3)ccc2c1)c1ccc(-c2ccccc2F)cc1 |
| 54 to 55 | CCc1cc([N+](=O)[O-])c(NC(CC)COC)c([N+](=O)[O-])c1COC (centres undefined) |
| 115 to 116 | CCCCc1nc(N)c(C#N)[nH]1 |
| 113 | CCOC(=O)NN=C(C)c1ccccn1 |
| 143 to 145 | CC(CN(C)c1ccccc1)NCC(O)c1ccc(O)c(C(N)=O)c1 (centres undefined) |
| 58 to 61 | Cc1nc(N2CCN(Cc3ccccn3)C2=O)sc1C(=O)NCc1cccnc1 |
| 201 to 202 | COC(=O)c1[nH]c2c(C)ccc(C)c2c1C(N)=O |
| 122 to 124 | Cc1cc(N2C(=O)N(CCCCCCCCCSCCCC(F)(F)C(F)(F)F)C(C)(C)C2=O)ccc1NS(=O)(=O)NC(=O)OC(C)(C)C |
| 200 | Cn1ccnc1SCCN1CCC(=C2c3ccn(C)c3CCn3ccnc32)CC1 |
| 65 to 66.4 | O=C(CCl)NC[C@@H]1CN2C(=O)C[C@H]2O1 (racemic) |
| 262 to 264 | CC(C)(C)c1cc(NC(=O)c2csc(-c3ccc([N+](=O)[O-])cc3)n2)cc(C(C)(C)C)c1O |
| 189 to 191 | CC(C)n1cnc2c(NCc3ccc(O)cc3O)nc(NC[C@@H](C)O)nc21 |

| melting point [°C] | Structure (SMILES) |
| --- | --- |
| 179 to 181 | Cc1cccc(COc2cccnc2NC(=N)Nc2ccc(Cl)cc2)c1F |
| 152 | O=C(Cl)c1cnc2cc(OCc3ccccc3)c(OCc3ccccc3)cn2c1=O |
| 114 to 115 | CC(C)CNc1c([N+](=O)[O-])cnc2cc(Br)cnc12 |
| 200 | O=C(NC(=O)c1c(Cl)cccc1Cl)Nc1ccc(C(F)(F)F)cc1 |
| 95 to 97 | COCCc1ccc(OCC(O)CNC2CCc3ccccc3C2)cc1 (centres undefined) |
| 120 to 124 | Cc1ccc2cccc(OCc3cc(N(C)C(=O)CN4C(=O)c5ccccc5C4=O)ccc3Cl)c2n1 |
| 216 to 218 | Nc1c(Br)cc(S(N)(=O)=O)cc1[N+](=O)[O-] |
| 196 to 197 | O=C(Cn1c(-c2ccc(Cl)cc2)nc2cccnc21)N1CCC1 |
| 114 to 115 | CCCSc1cc(C(=O)CCC(=O)c2cc(OC)c(OC)c(OC)c2)cc(OC)c1OCc1ccccc1 |
| 168 to 170 | Cc1nc(C)c(N2CCCn3c2nc2c(Cl)ccc(C(OC(F)F)C(F)(F)F)c23)c(C)n1 (centres undefined) |
| 132 to 136 | CCn1c(C)c(C2(N(c3ccccc3)c3ccccc3)OC(=O)c3cccnc32)c2ccccc21 (centres undefined) |
| 136 to 138 | C=CCNC(=O)C(O)C1OC(n2cnc3c(N)ncnc32)C(O)C1O (centres undefined) |
| 119 to 120 | CCCCCN1CCN(c2cccc3c2C[C@H](NC(C)=O)CC3)CC1 |
| 131 to 133 | Cc1csc2ncc(C(C)(O)CCc3ccccc3)n12 (centres undefined) |
| 162 to 163 | COC(=O)c1nnc(Cl)cc1NCc1ccc(OC)c(Cl)c1 |
| 153 | CCOC(=O)N1CCC2(CC1)C(=O)NCN2c1ccc(F)cc1 |
| 255 to 261 | CN(C)C1CN(c2cc3c(cc2F)c(=O)c(C(=O)O)cn3C2CC2)C1 |
| 90 to 93 | CCCc1nc(C(C)(C)O)c(C(=O)OCc2oc(=O)oc2C)n1Cc1ccc(-c2ccccc2C(=O)O)cc1 |
| 197 to 199 | CCOc1cc(Cc2cnc(N)nc2N)cc2c1OC(C)(C)C=C2Cl |
| 214 to 217 | CC1(C)c2cc(NS(C)(=O)=O)ccc2CC2C1CCCN2CC1CCCCC1 (centres undefined) |
| 212 to 215 | Nc1cc(Cl)cc(Cc2cc(Cl)cc(N)c2O)c1O |

| Structure (SMILES) | melting point [°C] |
| --- | --- |
| CN(C)OCc1nnc2n1-c1ccc(Cl)cc1C(c1ccccc1)=NC2 | 174 |
| CC12CCC3C(CCC4C(=O)CCCC43C)C1CCC2OC1CCCCO1 (centres undefined) | 123 to 126 |
| CCN(CC)C(=O)CP(=S)(c1ccccc1)c1ccccc1 | 108 to 110 |
| COCCOc1ccc(C#CC2(O)CN3CCC2CC3)cc1 (centres undefined) | 148 to 149 |
